Measured values taken from patent publication US8012979B2, “Compounds and their uses 707” (AstraZeneca AB, priority 2007, dated 2011).

target: T1, human active recombinant p38α-6His tagged (Homo sapiens, UniProt Q16539); experiment: p38 Alpha Enzyme Assay (AlphaScreen, biotinylated-ATF2 substrate); format: biochemical; details: pre-incubated 4 hours at 37° C., reaction initiated with ATP; 0.5 nM enzyme; read-out: p38 pIC50 (converted)
T1 construct: 6His
Procedure: The ability of the compounds of formula (I) to inhibit p38 kinase may be determined using the following biological assay:
Enzyme assays were performed in polypropylene 96 well plates. The following solutions were added to each well; 10 μL of compound dilutions in assay buffer (20 mM HEPES pH 7.4, containing 20 mM magnesium acetate, 0.005% (w/v) Tween-20, 10 mM DTT) containing 1% (v/v) DMSO or assay buffer containing 1% (v/v) DMSO alone, 70 μL of assay buffer containing 36 nM substrate (biotinylated-ATF2) and 10 μL of an appropriate dilution of human active recombinant p38α-6His tagged. Depending on batch of p38, an appropriate dilution was typically a 5 nM solution to give a final enzyme concentration of 0.5 nM. At this stage, background control wells also received 50 μL of AlphaScreen quench buffer (10 mM HEPES pH 7.4 containing 100 mM EDTA, 0.2% (w/v) bovine serum albumin). The plate was covered, pre-incubated for 4 hours at 37° C. and the enzyme reaction initiated by addition of 10 μL 1 mM ATP. After incubation for a further 45 minutes at 37° C., the reaction was stopped by addition of 50 μL quench reagent and 50 μL of the quenched reaction mixture transferred to an opaque, white 96-well plate. Detection reagent, 25 μL of 10 mM HEPES pH 7.4 containing 100 mM EDTA, 0.2% (w/v) bovine serum albumin, 0.3 nM anti phosphoATF2 antibody and 25 μg/mL of ‘AlphaScreen protein A acceptor and donor beads’ (PerkinElmer Inc.), was added to all wells in a darkened room, the plate sealed and left in the dark for at least 5 hours before AlphaScreen readings were taken using a Perkin Elmer EnVision reader. Total, uninhibited activity was determined from assays performed in each assay plate. The mean control in the absence of p38 activity was subtracted from each well. Data were expressed as percent inhibition of total activity using equation 1. Percent Inhibition=100*(1−Test/Control) Eq.1 Where . . . . • Test=p38 kinase activity in the presence of compound • Control=p38 kinase activity in the absence of compound.
pIC50 is defined as the logarithm of the reciprocal of the concentration of compound required for 50% reduction in total p38 kinase activity.

T1 sequence (Q16539 whole entry): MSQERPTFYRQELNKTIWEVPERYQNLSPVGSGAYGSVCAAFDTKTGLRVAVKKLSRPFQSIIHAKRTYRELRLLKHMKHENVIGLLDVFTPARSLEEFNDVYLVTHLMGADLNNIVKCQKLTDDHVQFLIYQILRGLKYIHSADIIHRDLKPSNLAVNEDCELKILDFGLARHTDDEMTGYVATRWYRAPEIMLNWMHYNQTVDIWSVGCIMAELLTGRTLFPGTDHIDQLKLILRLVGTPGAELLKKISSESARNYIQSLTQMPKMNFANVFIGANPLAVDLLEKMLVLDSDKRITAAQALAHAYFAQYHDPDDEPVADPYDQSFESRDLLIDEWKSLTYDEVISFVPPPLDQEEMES

Going from `Cc1ccc(C(=O)NC2CC2)cc1-c1ccc2c(=O)n(Cc3ccncc3)cc(C(=O)N(C)C3CCN(C)CC3)c2c1` [Example 55, 6-(5-(Cyclopropylcarbamoyl)-2-methylphenyl)-N-methyl-N-(1-methylpiperidin-4-yl)-1-oxo-2-(pyridin-4-ylmethyl)-1,2-dihydroisoquinoline-4-carboxamide] to `Cc1ccc(C(=O)NC2CC2)cc1-c1ccc2c(=O)n(Cc3ccncc3)cc(C(=O)N3CCC(N(C)C)CC3)c2c1` [Example 56, N-Cyclopropyl-3-(4-(4-(dimethylamino)piperidine-1-carbonyl)-1-oxo-2-(pyridin-4-ylmethyl)-1,2-dihydroisoquinolin-6-yl)-4-methylbenzamide], the IC50 falls from 31.6 nM to 7.94 nM (4-fold).

`Cc1ccc(C(=O)NC2CC2)cc1-c1ccc2c(=O)n(Cc3ccncc3)cc(C(=O)NC3CCNCC3)c2c1` [Example 57, 6-(5-Cyclopropylcarbamoyl-2-methyl-phenyl)-1-oxo-2-pyridin-4-ylmethyl-1,2-dihydro-isoquinoline-4-carboxylic acid piperidin-4-ylamide] and `Cc1ccc(C(=O)NC2CC2)cc1-c1ccc2c(=O)n(Cc3ccncc3)cc(C(=O)N3CCC(N)CC3)c2c1` [Example 58, 3-(4-(4-Aminopiperidine-1-carbonyl)-1-oxo-2-(pyridin-4-ylmethyl)-1,2-dihydroisoquinolin-6-yl)-N-cyclopropyl-4-methylbenzamide] are within 1.5-fold of each other in IC50: 1.58 nM for the first, 2 nM for the second.

Going from `Cc1ccc(C(=O)NC2CC2)cc1-c1ccc2c(=O)n(CC3CC3)cc(CN3CCCN(C)CC3)c2c1` [Example 59, N-Cyclopropyl-3-[2-cyclopropylmethyl-4-(4-methyl-[1,4]diazepan-1-ylmethyl)-1-oxo-1,2-dihydro-isoquinolin-6-yl]-4-methyl-benzamide] to `Cc1ccc(C(=O)NC2CC2)cc1-c1ccc2c(=O)n(CC3CC3)cc(CN3CCN(C)CC3)c2c1` [Example 74, N-Cyclopropyl-3-(2-(cyclopropylmethyl)-4-((4-methylpiperazin-1-yl)methyl)-1-oxo-1,2-dihydroisoquinolin-6-yl)-4-methylbenzamide], the IC50 rises from 0.316 nM to 0.631 nM (2-fold).

First: Cc1c(F)cc(C(=O)NC2CC2)cc1-c1ccc2c(=O)n(Cc3ccccc3)cc(C(=O)NCCN(C)C)c2c1 [Example 60, 2-Benzyl-6-(5-(cyclopropylcarbamoyl)-3-fluoro-2-methylphenyl)-N-(2-(dimethylamino)ethyl)-1-oxo-1,2-dihydroisoquinoline-4-carboxamide]
Second: Cc1c(F)cc(C(=O)NC2CC2)cc1-c1ccc2c(=O)n(CC3CC3)cc(CNCCCN(C)C)c2c1 [Example 77, N-Cyclopropyl-3-(2-(cyclopropylmethyl)-4-((3-(dimethylamino)propylamino)methyl)-1-oxo-1,2-dihydroisoquinolin-6-yl)-5-fluoro-4-methylbenzamide]
The IC50 of the first is 4-fold lower: 0.398 nM for the first, 1.58 nM for the second.

Compared with `Cc1ccc(C(=O)NC2CC2)cc1-c1ccc2c(=O)n(Cc3ccccc3)cc(CN3CCCC3)c2c1` [Example 61, 3-(2-Benzyl-1-oxo-4-(pyrrolidin-1-ylmethyl)-1,2-dihydroisoquinolin-6-yl)-N-cyclopropyl-4-methylbenzamide], `Cc1ccc(C(=O)NC2CC2)cc1-c1ccc2c(=O)n(CC3CC3)cc(CN3CCCNCC3)c2c1` [Example 70, N-Cyclopropyl-3-(2-cyclopropylmethyl-4-[1,4]diazepan-1-ylmethyl-1-oxo-1,2-dihydro-isoquinolin-6-yl)-4-methyl-benzamide] is 63-fold lower in IC50: 10 nM for the first, 0.158 nM for the second.

Going from `Cc1ccc(C(=O)NC2CC2)cc1-c1ccc2c(=O)n(CC3CC3)cc(CN3CCC(N4CCCCC4)CC3)c2c1` [Example 62, 3-(4-(1,4′-Bipiperidin-1′-ylmethyl)-2-(cyclopropylmethyl)-1-oxo-1,2-dihydroisoquinolin-6-yl)-N-cyclopropyl-4-methylbenzamide] to `Cc1ccc(C(=O)NC2CC2)cc1-c1ccc2c(=O)n(CC3CC3)cc(CN3CCC(N)CC3)c2c1` [Example 66, 3-(4-((4-Aminopiperidin-1-yl)methyl)-2-(cyclopropylmethyl)-1-oxo-1,2-dihydroisoquinolin-6-yl)-N-cyclopropyl-4-methylbenzamide], the IC50 falls from 5.01 nM to 0.158 nM (32-fold).

First: Cc1ccc(C(=O)NC2CC2)cc1-c1ccc2c(=O)n(CC3CC3)cc(CN3CCN[C@@H](C)C3)c2c1 [Example 63, (S)—N-Cyclopropyl-3-(2-(cyclopropylmethyl)-4-((3-methylpiperazin-1-yl)methyl)-1-oxo-1,2-dihydroisoquinolin-6-yl)-4-methylbenzamide]
Second: Cc1ccc(C(=O)NC2CC2)cc1-c1ccc2c(=O)n(CC3CC3)cc(CN3CCC(N(C)C)CC3)c2c1 [Example 69, N-Cyclopropyl-3-(2-(cyclopropylmethyl)-4-((4-(dimethylamino)piperidin-1-yl)methyl)-1-oxo-1,2-dihydroisoquinolin-6-yl)-4-methylbenzamide]
The IC50 of the first is 5-fold higher: 1 nM for the first, 0.2 nM for the second.

`CNCCN(C)Cc1cn(CC2CC2)c(=O)c2ccc(-c3cc(C(=O)NC4CC4)ccc3C)cc12` [Example 64, N-Cyclopropyl-3-(2-(cyclopropylmethyl)-4-((methyl(2-(methylamino)ethyl)amino)methyl)-1-oxo-1,2-dihydroisoquinolin-6-yl)-4-methylbenzamide] and `Cc1ccc(C(=O)NC2CC2)cc1-c1ccc2c(=O)n(CC3CC3)cc(CN(C)CCN(C)C)c2c1` [Example 68, N-Cyclopropyl-3-(2-(cyclopropylmethyl)-4-(((2-(dimethylamino)ethyl)(methyl)amino)methyl)-1-oxo-1,2-dihydroisoquinolin-6-yl)-4-methylbenzamide] are within 1.5-fold of each other in IC50: 3.16 nM for the first, 3.98 nM for the second.

First: Cc1ccc(C(=O)NC2CC2)cc1-c1ccc2c(=O)n(CC3CC3)cc(CNC3CCN(C)CC3)c2c1 [Example 65, N-Cyclopropyl-3-(2-(cyclopropylmethyl)-4-((1-methylpiperidin-4-ylamino)methyl)-1-oxo-1,2-dihydroisoquinolin-6-yl)-4-methylbenzamide]
Second: Cc1ccc(C(=O)NC2CC2)cc1-c1ccc2c(=O)n(CC3CC3)cc(CNCCN(C)C)c2c1 [Example 67, N-Cyclopropyl-3-(2-(cyclopropylmethyl)-4-((2-(dimethylamino)ethylamino)methyl)-1-oxo-1,2-dihydroisoquinolin-6-yl)-4-methylbenzamide]
The IC50 of the first is 1.6-fold higher: 7.94 nM for the first, 5.01 nM for the second.

Going from `Cc1ccc(C(=O)NC2CC2)cc1-c1ccc2c(=O)n(CC3CC3)cc(CNCCCN(C)C)c2c1` [Example 71, N-Cyclopropyl-3-(2-(cyclopropylmethyl)-4-((3-(dimethylamino)propylamino)methyl)-1-oxo-1,2-dihydroisoquinolin-6-yl)-4-methylbenzamide] to `Cc1ccc(C(=O)NC2CC2)cc1-c1ccc2c(=O)n(CC3CC3)cc(CN3CCCN(CCO)CC3)c2c1` [Example 72, N-Cyclopropyl-3-(2-(cyclopropylmethyl)-4-((4-(2-hydroxyethyl)-1,4-diazepan-1-yl)methyl)-1-oxo-1,2-dihydroisoquinolin-6-yl)-4-methylbenzamide], the IC50 falls from 10 nM to 0.398 nM (25-fold).

Compared with `Cc1ccc(C(=O)NC2CC2)cc1-c1ccc2c(=O)n(CC3CC3)cc(CN3CCCN(C(C)C)CC3)c2c1` [Example 73, N-Cyclopropyl-3-(2-(cyclopropylmethyl)-4-((4-isopropyl-1,4-diazepan-1-yl)methyl)-1-oxo-1,2-dihydroisoquinolin-6-yl)-4-methylbenzamide], `Cc1c(F)cc(C(=O)NC2CC2)cc1-c1ccc2c(=O)n(CC3CC3)cc(CN3CCCN(C)CC3)c2c1` [Example 75, N-Cyclopropyl-3-(2-(cyclopropylmethyl)-4-((4-methyl-1,4-diazepan-1-yl)methyl)-1-oxo-1,2-dihydroisoquinolin-6-yl)-5-fluoro-4-methylbenzamide] is 25-fold lower in IC50: 1.26 nM for the first, 0.0501 nM for the second.

Going from `Cc1c(F)cc(C(=O)NC2CC2)cc1-c1ccc2c(=O)n(CC3CC3)cc(CN3CCN(C)CC3)c2c1` [Example 76, N-Cyclopropyl-3-(2-(cyclopropylmethyl)-4-((4-methylpiperazin-1-yl)methyl)-1-oxo-1,2-dihydroisoquinolin-6-yl)-5-fluoro-4-methylbenzamide] to `Cc1c(F)cc(C(=O)NC2CC2)cc1-c1ccc2c(=O)n(CC3CC3)cc(CN3CCCN(CCO)CC3)c2c1` [Example 78, N-Cyclopropyl-3-(2-(cyclopropylmethyl)-4-((4-(2-hydroxyethyl)-1,4-diazepan-1-yl)methyl)-1-oxo-1,2-dihydroisoquinolin-6-yl)-5-fluoro-4-methylbenzamide], the IC50 rises from 0.1 nM to 0.158 nM (1.6-fold).

`Cc1c(F)cc(C(=O)NC2CC2)cc1-c1ccc2c(=O)n(CC3CC3)cc(CN3CCC[N+]([O-])(CCO)CC3)c2c1` (stereo not shown) [Example 79, 4-((6-(5-(Cyclopropylcarbamoyl)-3-fluoro-2-methylphenyl)-2-(cyclopropylmethyl)-1-oxo-1,2-dihydroisoquinolin-4-yl)methyl)-1-(2-hydroxyethyl)-1,4-diazepane 1-oxide] showed an IC50 of 0.631 nM.
